Assay results from ChEMBL document CHEMBL1137901, “Biaryl guanidine inhibitors of in vitro HCV-IRES activity” (Bioorg Med Chem Lett, 2004).

Columns and labels:
Hepatitis C virus [1] = test: Selectivity was determined as the ratio of IC50 of non-IRES to that of IC50 of HCV-IRES; assay type: functional, Hepacivirus hominis
Hepatitis C virus [2] = test: In vitro inhibitory concentration against hepatitis C virus internal ribosome entry site (HCV-IRES) translation; assay type: functional, Hepacivirus hominis
[3] = In vitro inhibitory concentration against non internal ribosome entry site translation; assay type: functional

## COc1ccc(OC)c(CC/N=C(\N)Nc2nc(C)cc(C)n2)c1
Hepatitis C virus [1]
  Selectivity: >2.1
Hepatitis C virus [2]
  IC50: 94 µM

## Cc1cc(C)nc(/N=C(\S)NCCc2ccccc2)n1
[3]
  IC50: > 200 µM
Hepatitis C virus [2]
  IC50: > 200 µM

## Cc1ccc(C)c(CC/N=C(\N)Nc2nc(C)cc(C)n2)c1
Hepatitis C virus [1]
  Selectivity: 5.7
Hepatitis C virus [2]
  IC50: 35 µM

## Cc1cc(C)nc(/N=C(\N)NCCc2ccc(Br)cc2)n1
Hepatitis C virus [1]
  Selectivity: 2.5
Hepatitis C virus [2]
  IC50: 50 µM

## Cc1cc(C)nc(/N=C(\N)NCCc2ccncc2)n1
Hepatitis C virus [1]
  Selectivity: >3.6
Hepatitis C virus [2]
  IC50: 55 µM

## Cc1cc(C)nc(/N=C(\N)NCc2nc3ccccc3[nH]2)n1
Hepatitis C virus [1]
  Selectivity: 1.7
Hepatitis C virus [2]
  IC50: 23 µM

## Cc1cc(C)nc(/N=C(\N)NCCc2ccccc2C)n1
Hepatitis C virus [1]
  Selectivity: 1.8
Hepatitis C virus [2]
  IC50: 15 µM

## Cc1nc(/N=C(\N)NCCc2ccccc2)nc(C)c1OCCCN(C)C
Hepatitis C virus [1]
  Selectivity: 2
Hepatitis C virus [2]
  IC50: 2.1 µM

## Cc1nc(/N=C(\N)NCCc2ccccc2)nc(C)c1Br
Hepatitis C virus [1]
  Selectivity: 2.2
Hepatitis C virus [2]
  IC50: 8.1 µM

## COC(=O)c1ccc(CC/N=C(\N)Nc2nc(C)cc(C)n2)cc1
Hepatitis C virus [1]
  Selectivity: 3.4
Hepatitis C virus [2]
  IC50: 29 µM

## Cc1cc(C)nc(/N=C(\N)NCCc2cccnc2)n1
Hepatitis C virus [1]
  Selectivity: 4
Hepatitis C virus [2]
  IC50: 32 µM

## Cc1nc(/N=C(\N)NCCc2ccccc2)nc(C)c1C
Hepatitis C virus [1]
  Selectivity: 1.3
Hepatitis C virus [2]
  IC50: 4.2 µM

## Cc1cc(C)nc(/N=C(\N)NCCc2ccccc2Cl)n1
Hepatitis C virus [1]
  Selectivity: 1.8
Hepatitis C virus [2]
  IC50: 16 µM

## Cc1cc(C)nc(/N=C(\N)NCCc2ccc(C(F)(F)F)cc2)n1
Hepatitis C virus [1]
  Selectivity: 2.2
Hepatitis C virus [2]
  IC50: 82 µM

## CCOc1ccc(CC/N=C(\N)Nc2nc(C)cc(C)n2)cc1
Hepatitis C virus [1]
  Selectivity: >2.4
Hepatitis C virus [2]
  IC50: 82 µM

## Cc1cc(C)nc(/N=C(\N)NCCc2ccc(F)cc2)n1
Hepatitis C virus [1]
  Selectivity: 4.1
Hepatitis C virus [2]
  IC50: 23 µM

## Cc1cc(C)nc(/N=C(\N)NCc2cccs2)n1
Hepatitis C virus [1]
  Selectivity: 1.3
Hepatitis C virus [2]
  IC50: 38 µM

## Cc1cc(C)nc(NC(=N)N(C)CCc2ccccc2)n1
[3]
  IC50: > 200 µM
Hepatitis C virus [2]
  IC50: > 200 µM

## Cc1ccnc(/N=C(\N)NCCc2ccccc2)n1
Hepatitis C virus [1]
  Selectivity: 3.5
Hepatitis C virus [2]
  IC50: 46 µM

## Cc1cc(C)nc(/N=C(\N)NCCc2cccc(Cl)c2)n1
Hepatitis C virus [1]
  Selectivity: 1.8
Hepatitis C virus [2]
  IC50: 12 µM

## Cc1cc(C)nc(/N=C(\N)NCCc2ccc(C(C)(C)C)cc2)n1
[3]
  IC50: > 200 µM
Hepatitis C virus [2]
  IC50: > 200 µM

## Cc1cc(C)nc(/N=C(\N)NCCc2ccc(C(=O)O)cc2)n1
[3]
  IC50: > 200 µM
Hepatitis C virus [2]
  IC50: > 200 µM

## Cc1ccc(CC/N=C(\N)Nc2nc(C)cc(C)n2)c(C)c1
Hepatitis C virus [1]
  Selectivity: 3.3
Hepatitis C virus [2]
  IC50: 23 µM

## Cc1cc(C)nc(/N=C(\N)NCc2ccco2)n1
Hepatitis C virus [1]
  Selectivity: >2
Hepatitis C virus [2]
  IC50: 97 µM

## COc1ccccc1CC/N=C(\N)Nc1nc(C)cc(C)n1
Hepatitis C virus [1]
  Selectivity: 1.8
Hepatitis C virus [2]
  IC50: 13 µM

## COc1ccc(CC/N=C(\N)Nc2nc(C)cc(C)n2)c(OC)c1
Hepatitis C virus [1]
  Selectivity: 2.6
Hepatitis C virus [2]
  IC50: 68 µM

## Cc1cc(C)nc(/N=C(\N)NCCc2ccccn2)n1
Hepatitis C virus [1]
  Selectivity: 2.4
Hepatitis C virus [2]
  IC50: 39 µM

## Cc1cc(C)nc(N/C(N)=N/C[C@H](C)c2ccccc2)n1
Hepatitis C virus [1]
  Selectivity: 5.7
Hepatitis C virus [2]
  IC50: 35 µM

## Cc1ccc(CC/N=C(\N)Nc2nc(C)cc(C)n2)cc1
Hepatitis C virus [1]
  Selectivity: 3.8
Hepatitis C virus [2]
  IC50: 34 µM

## Cc1cc(C)nc(/N=C(\N)NCc2cc3ccccc3o2)n1
Hepatitis C virus [1]
  Selectivity: 2.8
Hepatitis C virus [2]
  IC50: 25 µM

## Cc1cc(C)nc(/N=C(\N)NCCc2ccc3ccccc3n2)n1
Hepatitis C virus [1]
  Selectivity: 3.7
Hepatitis C virus [2]
  IC50: 23 µM

## Cc1cc(C)nc(/N=C(\N)NCCc2ccc([N+](=O)[O-])cc2)n1
Hepatitis C virus [1]
  Selectivity: 1.5
Hepatitis C virus [2]
  IC50: 54 µM

## Cc1cc(C)nc(/N=C(\N)NCCc2ccc(-c3ccccc3)cc2)n1
Hepatitis C virus [1]
  Selectivity: >2.5
Hepatitis C virus [2]
  IC50: 80 µM

## COc1ccc(CCNC(=N)Nc2nc(C)cc(C)n2)cc1
Hepatitis C virus [1]
  Selectivity: 4.1
Hepatitis C virus [2]
  IC50: 25 µM

## Cc1cc(C)cc(NC(=N)NCCc2ccccc2)c1
[3]
  IC50: > 200 µM
Hepatitis C virus [2]
  IC50: > 200 µM

## COc1cc(OC)c(CC/N=C(\N)Nc2nc(C)cc(C)n2)c(OC)c1
Hepatitis C virus [1]
  Selectivity: >2
Hepatitis C virus [2]
  IC50: 100 µM

## Cc1cc(C)nc(/N=C(\N)NCCc2ccc(N)cc2)n1
Hepatitis C virus [1]
  Selectivity: 2.5
Hepatitis C virus [2]
  IC50: 61 µM

## Cc1cc(C)nc(N/C(N)=N/C[C@@H](C)c2ccccc2)n1
Hepatitis C virus [1]
  Selectivity: 1.9
Hepatitis C virus [2]
  IC50: 21 µM

## Cc1cc(C)nc(/N=C(\N)NCCc2ccc(Cl)cc2)n1
Hepatitis C virus [1]
  Selectivity: 2.3
Hepatitis C virus [2]
  IC50: 24 µM

## Cc1cc(C)nc(/N=C(\N)NC[C@H](O)c2ccccc2)n1
Hepatitis C virus [1]
  Selectivity: >2.7
Hepatitis C virus [2]
  IC50: 75 µM

## Cc1cc(C)nc(/N=C(\N)NCCCc2ccccc2)n1
Hepatitis C virus [1]
  Selectivity: 1.3
Hepatitis C virus [2]
  IC50: 150 µM

## Cc1cc(C)nc(/N=C(\N)NCC(c2ccccc2)c2ccccc2)n1
Hepatitis C virus [1]
  Selectivity: >2.7
Hepatitis C virus [2]
  IC50: 75 µM

## Cc1cc(C)nc(NC(=O)NCCc2ccccc2)n1
[3]
  IC50: > 200 µM
Hepatitis C virus [2]
  IC50: > 200 µM

## Cc1cc(C)nc(N(C)C(=N)NCCc2ccccc2)n1
[3]
  IC50: > 200 µM
Hepatitis C virus [2]
  IC50: > 200 µM

## COc1cc(OC)nc(/N=C(\N)NCCc2ccccc2)n1
Hepatitis C virus [1]
  Selectivity: 5
Hepatitis C virus [2]
  IC50: 35 µM

## COc1cc(CC/N=C(\N)Nc2nc(C)cc(C)n2)cc(OC)c1
Hepatitis C virus [1]
  Selectivity: >7.7
Hepatitis C virus [2]
  IC50: 26 µM

## Cc1cc(C)nc(/N=C(\N)NCCc2ccc(O)cc2)n1
Hepatitis C virus [1]
  Selectivity: 3
Hepatitis C virus [2]
  IC50: 49 µM

## Cc1cccc(CC/N=C(\N)Nc2nc(C)cc(C)n2)c1
Hepatitis C virus [1]
  Selectivity: 2.8
Hepatitis C virus [2]
  IC50: 23 µM

## Cc1nc(/N=C(\N)NCCc2ccccc2)nc(C)c1O
Hepatitis C virus [1]
  Selectivity: 3.6
Hepatitis C virus [2]
  IC50: 19 µM

## Cc1cc(C)nc(/N=C(\N)NCCc2ccccc2)n1
Hepatitis C virus [1]
  Selectivity: 2.4
Hepatitis C virus [2]
  IC50: 9.6 µM

## Cc1cc(C)nc(/N=C(\N)NC[C@@H](O)c2ccccc2)n1
Hepatitis C virus [1]
  Selectivity: >2.2
Hepatitis C virus [2]
  IC50: 9.7 µM

## Cc1cc(C)nc(NC(=N)NCCc2ccccc2)c1
[3]
  IC50: > 200 µM
Hepatitis C virus [2]
  IC50: > 200 µM

## Cc1cc(C)nc(/N=C(\N)NCc2ccccc2)n1
Hepatitis C virus [1]
  Selectivity: 2.6
Hepatitis C virus [2]
  IC50: 7.6 µM

## Cc1cc(C)nc(N/C(N)=N/CCc2ccc(C(C)C)cc2)n1
Hepatitis C virus [1]
  Selectivity: >1.9
Hepatitis C virus [2]
  IC50: 104 µM

## COc1c(C)nc(/N=C(\N)NCCc2ccccc2)nc1C
Hepatitis C virus [1]
  Selectivity: 3.4
Hepatitis C virus [2]
  IC50: 9.9 µM

## CCc1cc(CC)nc(/N=C(\N)NCCc2ccccc2)n1
Hepatitis C virus [1]
  Selectivity: 2.2
Hepatitis C virus [2]
  IC50: 13 µM

## Cc1cc(C)nc(/N=C(\N)NCCc2ccc(OC(F)(F)F)cc2)n1
Hepatitis C virus [1]
  Selectivity: >2.2
Hepatitis C virus [2]
  IC50: 92 µM
